Test results published in patent US20260250318A1, “COMPOSITIONS AND METHODS FOR CROSSING THE BLOOD BRAIN BARRIER” (VOYAGER THERAPEUTICS, INC., priority 2022, published 2026).

Assays:
[1] = system: brain; assay: Matured TTM-001 and TTM-002 variants, NGS enrichment in mouse brain; format: in vivo, mice; conditions: relative to AAV9 control
[2] = system: brains, heart, liver, muscle, and DRG of the NHPs; assay: Maturation of TTM-001 and TTM-002 capsids, NGS enrichment in NHP tissues; format: in vivo; conditions: relative to AAV9 control
Procedure, shortened: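 Variants carry mutations within and flanking the loop IV peptide insert: positions 450–466 were triplet-randomized, while positions 449–466 received low-frequency point mutations. The combined pool went into two NHPs, and each peptide was scored by NGS enrichment ratio against AAV9.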

[3] = NGS fold-enrichment, mouse brain
[4] = NGS fold-enrichment of RNA, NHP brain
[5] = NGS fold-enrichment, NHP liver DNA
[6] = NGS fold-enrichment, NHP liver RNA
[7] = NGS fold-enrichment, NHP muscle
[8] = NGS fold-enrichment, brain of mice
[9] = NGS fold-enrichment, DRG of NHPs
[10] = NGS fold-enrichment, RNA, brain of NHPs
[11] = NGS fold-enrichment, heart of NHPs
[12] = NGS fold-enrichment, liver DNA of NHPs
[13] = NGS fold-enrichment, liver RNA of NHPs
[14] = NGS fold-enrichment, muscle of NHPs
[15] = NGS fold-enrichment of matured AAV capsid variants, NHP brain, RNA

Row | Sequence | Fold Enrichment relative to AAV9, Brain (Mouse) [1, 3] [fold] | Fold Enrichment relative to AAV9, Brain (NHP) [2, 4] [fold] | Fold Enrichment relative to AAV9, DRG (NHP) ([2]; NGS fold-enrichment, NHP DRG) [fold] | Fold Enrichment relative to AAV9, Heart (NHP) ([2]; NGS fold-enrichment, NHP heart) [fold] | Fold Enrichment relative to AAV9, Liver DNA (NHP) [2, 5] [fold] | Fold Enrichment relative to AAV9, Liver RNA (NHP) [2, 6] [fold] | Fold Enrichment relative to AAV9, Brain (Mouse) [1, 8] [fold] | Fold Enrichment relative to AAV9, DRG (NHP) [2, 9] [fold] | Fold Enrichment relative to AAV9, Brain (NHP) [2, 10] [fold] | Fold Enrichment relative to AAV9, Heart (NHP) [2, 11] [fold] | Fold Enrichment relative to AAV9, Liver DNA (NHP) [2, 12] [fold] | Fold Enrichment relative to AAV9, Liver RNA (NHP) [2, 13] [fold] | Fold Enrichment relative to AAV9, Muscle (NHP) [2, 14] [fold] | Fold Enrichment relative to AAV9, Brain (Mouse) ([1]; mouse brain) [fold] | Fold Enrichment relative to AAV9, Brain (NHP) [2, 15] [fold] | Fold Enrichment relative to AAV9, DRG (NHP) ([2]; NHP DRG) [fold] | Fold Enrichment relative to AAV9, Heart (NHP) ([2]; NHP heart) [fold] | Fold Enrichment relative to AAV9, Liver DNA (NHP) ([2]; NHP liver, DNA) [fold] | Fold Enrichment relative to AAV9, Liver RNA (NHP) ([2]; NHP liver, RNA) [fold] | Fold Enrichment relative to AAV9, Muscle (NHP) ([2]; NHP muscle) [fold] | also measured
1 | KTINGHDSPHKSGRTQET | 7.270 | 81.599 | 0.000 | 0.062 | 0.137 | 0.000 | – | – | – | – | – | – | – | – | – | – | – | – | – | – | Fold Enrichment relative to AAV9, Muscle (NHP) [2, 7]: 0.000 fold
2 | KNINGSGSPHSKAQNQQT (KNTNGSGSPHSKAQNQQT) | – | – | – | – | – | – | 89.719 | 0.000 | 78.445 | 0.000 | 0.177 | 0.571 | 0.000 | – | – | – | – | – | – | – | –
3 | KTSNGSGSPHSKAQNLQI | – | – | – | – | – | – | – | – | – | – | – | – | – | 74.823 | 52.843 | 0.000 | 0.000 | 0.214 | 0.178 | 1.605 | –
4 | KTDKSSGSPHSKAQNQQT | 141.351 | 79.470 | 0.055 | 0.012 | 0.367 | 1.437 | 141.351 | 0.055 | 79.470 | 0.012 | 0.367 | 1.437 | 0.000 | – | – | – | – | – | – | – | Fold Enrichment relative to AAV9, Muscle (NHP) [2, 7]: 0.000 fold
5 | KTELTSGSPHSKAQNQQT | – | – | – | – | – | – | 100.311 | 0.000 | 74.548 | 0.000 | 0.421 | 0.537 | 0.000 | – | – | – | – | – | – | – | –
6 | NTINGSGSPHSKAQNQQT (peptide inserted in AAV capsid) | 55.179 | 90.017 | 1.712 | 1.261 | 0.540 | 0.923 | 55.179 | 1.712 | 90.017 | 1.261 | 0.540 | 0.923 | 1.171 | – | – | – | – | – | – | – | Fold Enrichment relative to AAV9, Muscle (NHP) [2, 7]: 1.171 fold
7 | KTEFGHDSPHKSGQNQQT | 16.337 | 77.245 | 0.000 | 0.124 | 0.063 | 0.561 | – | – | – | – | – | – | – | – | – | – | – | – | – | – | Fold Enrichment relative to AAV9, Muscle (NHP) [2, 7]: 0.000 fold
8 | KTINGSGSPHSKSQNVQT | – | – | – | – | – | – | 56.672 | 0.000 | 66.627 | 0.190 | 0.188 | 0.202 | 0.000 | – | – | – | – | – | – | – | –
9 | KTSNASGSPHSKAQNQLT | – | – | – | – | – | – | 150.401 | 0.000 | 73.501 | 0.000 | 0.313 | 0.000 | 0.297 | – | – | – | – | – | – | – | –
10 | KTVNGNGSPHSKAQNQHT | 54.086 | 78.849 | 0.000 | 0.000 | 0.045 | 0.000 | 54.086 | 0.000 | 78.849 | 0.000 | 0.045 | 0.000 | 0.000 | – | – | – | – | – | – | – | Fold Enrichment relative to AAV9, Muscle (NHP) [2, 7]: 0.000 fold
11 | KTINGSGSPHSKAQGILT | – | – | – | – | – | – | – | – | – | – | – | – | – | 102.631 | 58.418 | 0.000 | 0.005 | 0.192 | 0.569 | 0.010 | –
12 | KTIDGSGSPHSKALNKQT | – | – | – | – | – | – | – | – | – | – | – | – | – | 74.626 | 58.992 | 0.000 | 0.267 | 0.056 | 0.000 | 0.000 | –
13 | KTINGSGSPHSKAQRDIT | – | – | – | – | – | – | – | – | – | – | – | – | – | 88.122 | 52.415 | 0.098 | 0.000 | 0.605 | 1.784 | 0.008 | –
14 | KTINGSGSPHSKAQHPST | – | – | – | – | – | – | 101.103 | 0.000 | 62.255 | 0.044 | 0.301 | 1.345 | 0.000 | – | – | – | – | – | – | – | –
15 | KTINGSGSPHSKAIGKQT | – | – | – | – | – | – | – | – | – | – | – | – | – | 110.132 | 56.158 | 0.000 | 0.000 | 0.088 | 0.887 | 0.000 | –
16 | KTVNGSGSPHSKAPNQQT | – | – | – | – | – | – | – | – | – | – | – | – | – | 58.080 | 53.444 | 0.833 | 2.206 | 0.178 | 0.156 | 0.006 | –
